Results on 2 molecules are retold here after paper PMC6025875, “Genetic manipulation of Leishmania donovani threonyl tRNA synthetase facilitates its exploration as a potential therapeutic target” (PLoS Neglected Tropical Diseases, 2018).

By Kd is commonly meant the concentration at which binding is half-saturated. A lower Kd goes with higher affinity. A word on the Km: it is the substrate concentration at which the rate is half of its maximum.

The target in series [1] is T1, threonyl tRNA synthetase (LdThrRS) (Leishmania donovani, UniProt A0A3S7X901).
T1 construct: gene LdCL_350019100; full-length recombinant LdThrRS with N-terminal His6 tag (rLdThrRS, pET30a, E. coli BL21 (DE3))
Nature of the series: ITC at […]°C (N = […]); also inhibits aminoacylation of the purified enzyme, IC50 […]. Type of series: binding.

Substrate in the series “purified protein”: C[C@@H](O)[C@H](N)C(=O)O
As to the kind of experiment: purified protein.

Turning to `C[C@@H]1C[C@H](C)C[C@H](C)[C@@H](O)CC(=O)O[C@H]([C@@H]2CCC[C@H]2C(=O)O)C/C=C/C=C(/C#N)[C@H](O)[C@@H](C)C1` [borrelidin], in series [1], the Kd was determined as 40 nM.

B1: threonyl tRNA synthetase (LdThrRS) (Leishmania donovani) (protein)
chain: MSGKKKAAEATVDLATLAEPGFWRQRVEIFEQLWQQQQNRYESMKAPIKVSLPDGKVMDAESWVTCPLDIAKRLSNSLPDKVIVARVNEALWDLTRPFEADCQLELLDWDDKDAREVFWHSSSHVLGYALERIFDTKLSVGPALEEGGFFYEGLTNRPVSESDYKAIESAMQELVKQKMPYQRLEVSKEDALRLFGYTEFKSKILASKVPDGGSCTVYRCGMLIDPCRGPHLPDTGRVKAFAVTKNSSSYFEGKAENEVLQRVYGISFPKNPMLTEWKTIQEEAAKRDHRVIGRQQNLFNFHEVSPGSAFWLPHGTRIYNTLVEFLRKKYRRCGFQEVISPNMYSSKLWMVSGHWEKYADNMFCTKCEKEDFGLKPMNCPGHCIMFASQPHSYKELPIRYADFGVLHRNELSGALTGLTRVRRFQQDDAHIFCRMDQITDEMEGQMQFLSDVYGVLGFKFYFYHSTRPANKLGSDALWDQSESYLRTALNRFCGIPEELPDPLHPDQRFHYDGKPDSVKKMKALMKKAERCEDPNAWKGPTNGGDGWIENAGDGAFYGPKIDIVVEDALRRRHQCATIQLDFNLPSRFGLKYTLPAAEKDETTVSPTEKQKHADPALTASSPAVEDCVSKPKPGTYEAAVRDLGIDLELDANQARPVMIHRAILGSLERSIAILCEHFGGDWPFWLSPRQVMVVPVSASNYEYSQQVRDTMHDAGFHADVDNGAATLDKKIRNAEKARYNFILVVGQKEQDATAVNIRARGEKRLGNKSLVEAVQWLKELADTHNREY
Regarding B1, in the series “purified protein”, the Michaelis constant (Km) came out at 250 ± 30 µM.
